From US20260256925A1, “INDAZOLE DERIVATIVES AS ESTROGEN RECEPTOR DEGRADERS” (REGENTS OF THE UNIVERSITY OF MICHIGAN, priority 2022, published 2026) come the findings set out here.

Each structure is given as a SMILES string.

One experiment has as its target T1, ER (Homo sapiens, UniProt P03372).
T1 construct: endogenous in cells; probably T47D or MCF-7
T1 sequence (P03372 1-595): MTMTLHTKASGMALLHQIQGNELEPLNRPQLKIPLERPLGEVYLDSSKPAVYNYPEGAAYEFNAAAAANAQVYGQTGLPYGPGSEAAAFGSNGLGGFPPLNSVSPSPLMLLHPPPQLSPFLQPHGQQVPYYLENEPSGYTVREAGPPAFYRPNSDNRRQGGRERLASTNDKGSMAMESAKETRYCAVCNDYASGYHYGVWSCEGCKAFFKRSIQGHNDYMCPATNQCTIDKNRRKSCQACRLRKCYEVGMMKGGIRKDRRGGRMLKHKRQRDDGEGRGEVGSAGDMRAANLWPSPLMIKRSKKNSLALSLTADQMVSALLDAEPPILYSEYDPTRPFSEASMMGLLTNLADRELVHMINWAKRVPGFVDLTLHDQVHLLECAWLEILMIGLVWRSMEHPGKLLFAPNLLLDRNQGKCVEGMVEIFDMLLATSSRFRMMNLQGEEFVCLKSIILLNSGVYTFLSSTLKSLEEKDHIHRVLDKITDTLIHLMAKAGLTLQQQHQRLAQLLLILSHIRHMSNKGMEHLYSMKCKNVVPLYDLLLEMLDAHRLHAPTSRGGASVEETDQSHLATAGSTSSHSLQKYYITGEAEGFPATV
The experiment is described as follows: In-cell western blot analysis, relative ER percentage (compounds B1-B126). The conditions noted are these: ER degradation, 16 hours, read-out: ICW DC50. Type of experiment: cell-based. As for the experimental part: In-cell western blot analysis. Cells are seeded in multi-well plates (e.g., at 40,000 or 10,000 cells/well). Diluted compounds at certain concentration are added (final 0.5% DMSO) and cells are incubated for a certain period of time (e.g., 16 hours). Formaldehyde (e.g., PBS: FA=9:1) is added and followed by washing with PBS. The cells are blocked with Licor blocking buffer (Li-Cor). The relative ER percentage in treated cells are obtained by comparing the values of treated wells to those in untreated and DMSO-treated wells as 100%.
In-cell western blot analysis. a. seed cells in black-sided/clear bottom 96- or 384-well plates at 40,000 or 10,000 cells/well, overnight; b. add diluted compounds (final 0.5% DMSO), 16 hours. […] RT 2h, gentle shaking. Negative control: cells plus secondary antibodies (no primary antibodies); e. wash×4 with PBS +0.05-0.1% Tween 20, gentel shaking; f. anti-rabbit-680 and anti-mouse-800 (both 1:1000 in LiCor block+0.05% Tween20, RT 1h, gentle shaking, no light. LI-COR: 0.2% to reduce background; g. wash×4 with PBS+0.05% Tween 20, gental shaking; h. add 100 μL or 25 μL of PBS to each well and read on CLX plate reader. The relative ER percentage in treated cells were obtained by comparing the values of treated wells to those in untreated and DMSO-treated wells as 100%.

The nature of experiment [1]: Cell growth assay, WST-8 (compounds B1-B126). Type of experiment: cell-based. The settings on record: 96 h; T47D cell line, WST-8, 4 days; read-out: Cell growth inhibition in T47D cell line IC50. Here is the method:
Cell Growth Assay. The cells are seeded at certain concentration (e.g., at 1500/well) in multi-well plates overnight. Cells are subsequently treated with the compounds. A certain period of time (e.g., 4 days) after the compound treatment, 10% WST-8 reagent is added to the culture medium and incubate under certain condiction (e.g., in a CO2 incubator at 37° C. for 2.5 hours). The absorbance is measured on each sample using a microplate reader at certain wavelength (e.g., 450 nm). The relative absorbance is calculated against the vehicle control from three individually repeats.
Cell Growth Assay. The cells were seeded at 1500/well in 96 well plates overnight. One day after the seeding, they were treated with indicated doses of compounds respectively. 4 days after the compound treatment, 10% WST-8 reagent was added to the culture medium and incubate in a CO2 incubator at 37° C. for 2.5 hours. Before reading, the plate was mixed gently on an orbital shaker for one minute to ensure homogeneous distribution of color. The absorbance was measured of each sample using a microplate reader at a wavelength of 450 nm. The relative absorbance was calculated against the vehicle control from three individually repeats.

For `C[C@@H]1Cc2c(ccc3[nH]ncc23)[C@@H](c2ccc(N3CC4(CCC(CN5CCN6c7cc8c(cc7OC[C@@H]6C5)C(=O)N(C5CCC(=O)NC5=O)C8)CC4)C3)cn2)N1CC(F)F` (stereo partly drawn) [Compound B88, 3-((S)-3-((2-(6-((6S,8R)-7-(2,2-difluoroethyl)-8-methyl-6,7,8,9-tetrahydro-3H-pyrazolo[4,3-f]isoquinolin-6-yl)pyridin-3-yl)-2-azaspiro[3.5]nonan-7-yl)methyl)-8-oxo-1,2,3,4,4a,5,8,10-octahydro-9H-pyrazino[1′,2′:4,5][1,4]oxazino[2,3-f]isoindol-9-yl)piperidine-2,6-dione], on ER, the DC50 is less than 10 nM. Moreover, the IC50 in experiment [1] was 1 to 10 nM.

With `COc1cc(N2CC3(CCC(CN4CCN5c6ccc7c(c6OC[C@H]5C4)CN(C4CCC(=O)NC4=O)C7=O)CC3)C2)ccc1[C@@H]1c2ccc3[nH]ncc3c2C[C@@H](C)N1CC(F)F` (stereo partly drawn) [Compound B84, 3-((R)-7-((2-(4-((6S,8R)-7-(2,2-difluoroethyl)-8-methyl-6,7,8,9-tetrahydro-3H-pyrazolo[4,3-f]isoquinolin-6-yl)-3-methoxyphenyl)-2-azaspiro[3.5]nonan-7-yl)methyl)-1-oxo-1,3,5,5a,6,7,8,9-octahydro-2H-pyrazino[1′,2′:4,5][1,4]oxazino[2,3-e]isoindol-2-yl)piperidine-2,6-dione], at ER, the DC50 is more than 100 nM. Also, the IC50 in experiment [1] is more than 10 nM.

For `C[C@@H]1Cc2c(ccc3[nH]ncc23)[C@@H](c2ccc(N3CCC(CN4CCC5(CC4)COc4c(ccc6c4CN([C@H]4CCC(=O)NC4=O)C6=O)O5)CC3)cn2)N1CC(F)(F)F` [Compound B119, (S)-3-(1-((1-(6-((6S,8R)-8-methyl-7-(2,2,2-trifluoroethyl)-6,7,8,9-tetrahydro-3H-pyrazolo[4,3-f]isoquinolin-6-yl)pyridin-3-yl)piperidin-4-yl)mcthyl)-7′-oxo-7′,9′-dihydro-2′H,8′H-spiro[piperidine-4,3′-[1,4]dioxino[2,3-e]isoindol]-8′-yl)piperidine-2,6-dione], at ER, the DC50 lay in the range of 10 to 100 nM. Moreover, in experiment [1], the IC50 is less than 1 nM.

On to `COc1cc(N2CCC3(CC2)OCC(CN2CCN4c5ccc6c(c5OC[C@@H]4C2)CN([C@@H]2CCC(=O)NC2=O)C6=O)CO3)ccc1[C@@H]1c2ccc3[nH]ncc3c2C[C@@H](C)N1CC(F)F` [Compound B116, (R)-3-((S)-7-((9-(4-((6S,8R)-7-(2,2-difluoroethyl)-8-methyl-6,7,8,9-tetrahydro-3H-pyrazolo[4,3-f]isoquinolin-6-yl)-3-methoxyphenyl)-1,5-dioxa-9-azaspiro[5.5]undecan-3-yl)methyl)-1-oxo-1,3,5,5a,6,7,8,9-octahydro-2H-pyrazino[1′,2′:4,5][1,4]oxazino[2,3-e]isoindol-2-yl)piperidine-2,6-dione], for which, on ER, the DC50 was less than 10 nM. Moreover, the IC50 in experiment [1] was less than 1 nM.

For the molecule `COc1cc(N2CCC3(CC2)CC(CN2CCN4c5ccc6c(c5OC[C@H]4C2)CN([C@H]2CCC(=O)NC2=O)C6=O)CO3)ccc1[C@@H]1c2ccc3[nH]ncc3c2C[C@@H](C)N1CC(F)F` (stereo partly drawn) [Compound B81, (3S)-3-((5aR)-7-((8-(4-((6S,8R)-7-(2,2-difluoroethyl)-8-methyl-6,7,8,9-tetrahydro-3H-pyrazolo[4,3-f]isoquinolin-6-yl)-3-methoxyphenyl)-1-oxa-8-azaspiro[4.5]decan-3-yl)methyl)-1-oxo-1,3,5,5a,6,7,8,9-octahydro-2H-pyrazino[1′,2′:4,5][1,4]oxazino[2,3-e]isoindol-2-yl)piperidine-2,6-dione], the DC50 at ER was less than 10 nM. The concentration for half-maximal inhibition (IC50) in experiment [1] is less than 1 nM.

In the case of `COc1cc(N2CCC3(CCN(C(=O)CN4Cc5cc6c(cc5C4)C(=O)N(C4CCC(=O)NC4=O)C6=O)CC3)CC2)ccc1[C@@H]1c2ccc3[nH]ncc3c2C[C@@H](C)N1CC(F)F` (stereo partly drawn) [Compound B68, 6-(2-(9-(4-((6S,8R)-7-(2,2-difluoroethyl)-8-methyl-6,7,8,9-tetrahydro-3H-pyrazolo[4,3-f]isoquinolin-6-yl)-3-methoxyphenyl)-3,9-diazaspiro[5.5]undecan-3-yl)-2-oxoethyl)-2-(2,6-dioxopiperidin-3-yl)-6,7-dihydropyrrolo[3,4-f]isoindole-1,3(2H,5H)-dione], the DC50 on ER was less than 10 nM. Moreover, the IC50 in experiment [1] lay within 1 to 10 nM.

As to `C[C@@H]1Cc2c(ccc3[nH]ncc23)[C@@H](c2ccc(N3CCC4(CCC(CN5CCN6c7ccc8c(c7OCC6C5)CN([C@H]5CCC(=O)NC5=O)C8=O)CO4)CC3)nn2)N1CC(F)(F)F` (stereo partly drawn) [Compound B127, (3S)-3-(7-((9-(6-((6S,8R)-8-methyl-7-(2,2,2-trifluoroethyl)-6,7,8,9-tetrahydro-3H-pyrazolo[4,3-f]isoquinolin-6-yl)pyridazin-3-yl)-1-oxa-9-azaspiro[5.5]undecan-3-yl)methyl)-1-oxo-1,3,5,5a,6,7,8,9-octahydro-2H-pyrazino[1′,2′:4,5][1,4]oxazino[2,3-e]isoindol-2-yl)piperidine-2,6-dione], the DC50 on ER is less than 10 nM. Also, in experiment [1], the concentration for half-maximal inhibition (IC50) is less than 1 nM.

In the case of `C[C@@H]1Cc2c(ccc3[nH]ncc23)[C@@H](c2ccc(N3CCC4(CC3)CC(CN3CCN5c6cc7c(cc6N(C)C[C@@H]5C3)C(=O)N(C3CCC(=O)NC3=O)C7)C4)cn2)N1CC(F)(F)F` (stereo partly drawn) [Compound B61, 3-((S)-6-methyl-3-((7-(6-((6S,8R)-8-methyl-7-(2,2,2-trifluoroethyl)-6,7,8,9-tetrahydro-3H-pyrazolo[4,3-f]isoquinolin-6-yl)pyridin-3-yl)-7-azaspiro[3.5]nonan-2-yl)methyl)-8-oxo-2,3,4,4a,5,6,8,10-octahydropyrazino[1,2-a]pyrrolo[3,4-g]quinoxalin-9(1H)-yl)piperidine-2,6-dione], the DC50 on ER is less than 10 nM. In experiment [1], the IC50 is less than 1 nM.

As to `C[C@@H]1Cc2c(ccc3[nH]ncc23)[C@@H](c2cnc(N3CCC4(CC3)CC(CN3CCN5c6ccc7c(c6OC[C@H]5C3)CN(C3CCC(=O)NC3=O)C7=O)C4)nc2)N1CC(F)(F)F` (stereo partly drawn) [Compound B112, 3-((R)-7-((7-(5-((6S,8R)-8-methyl-7-(2,2,2-trifluoroethyl)-6,7,8,9-tetrahydro-3H-pyrazolo[4,3-f]isoquinolin-6-yl)pyrimidin-2-yl)-7-azaspiro[3.5]nonan-2-yl)methyl)-1-oxo-1,3,5,5a,6,7,8,9-octahydro-2H-pyrazino[1′,2′:4,5][1,4]oxazino[2,3-e]isoindol-2-yl)piperidine-2,6-dione], at ER, the DC50 was less than 10 nM. The IC50 in experiment [1] is less than 1 nM.

For the molecule `C[C@@H]1Cc2c(ccc3[nH]ncc23)[C@@H](c2ccc(N3CCC4(CC3)CN(C(=O)CN3CCC5(CC3)COc3c5ccc5c3CN(C3CCC(=O)NC3=O)C5=O)C4)cn2)N1CC(F)(F)F` (stereo partly drawn) [Compound B78, 3-(1′-(2-(7-(6-((6S,8R)-8-methyl-7-(2,2,2-trifluoroethyl)-6,7,8,9-tetrahydro-3H-pyrazolo[4,3-f]isoquinolin-6-yl)pyridin-3-yl)-2,7-diazaspiro[3.5]nonan-2-yl)-2-oxoethyl)-6-oxo-6,8-dihydro-2H,7H-spiro[furo[2,3-e]isoindole-3,4′-piperidin]-7-yl)piperidine-2,6-dione], the DC50 on ER is less than 10 nM. Besides, the IC50 in experiment [1] was less than 1 nM.
